Values after ≈ are worked out from the molar mass of the structure shown.
Assays:
[1] = Inhibition of Staphylococcus aureus Tyrosyl-tRNA synthetase using L-[ring-3,5-3H] tyrosine as substrate after 10 min by liquid scintillation assay
Staphylococcus aureus [2] = test: Antibacterial activity against Staphylococcus aureus ATCC 6538 after 24 hr by MTT assay; assay type: functional; conditions: ATCC 6538, 24 h
Staphylococcus aureus [3] = test: Antibacterial activity against Staphylococcus aureus ATCC 25923 after 24 hr by MTT assay; assay type: functional; conditions: ATCC 25923, 24 h
Escherichia coli [4] = test: Antibacterial activity against Escherichia coli ATCC 8739 after 24 hr by MTT assay; assay type: functional; conditions: ATCC 8739, 24 h
Escherichia coli [5] = test: Antibacterial activity against Escherichia coli ATCC 35218 after 24 hr by MTT assay; assay type: functional; conditions: ATCC 35218, 24 h
Pseudomonas aeruginosa [6] = test: Antibacterial activity against Pseudomonas aeruginosa ATCC 9027 after 24 hr by MTT assay; assay type: functional; conditions: ATCC 9027, 24 h
Staphylococcus aureus [7] = test: Potency index, ratio of penicillin G MIC to compound MIC for Staphylococcus aureus ATCC 6538; assay type: functional
Pseudomonas aeruginosa [8] = test: Potency index, ratio of penicillin G MIC to compound MIC for Pseudomonas aeruginosa ATCC 9027; assay type: functional

Row | Structure (SMILES) | IC50 [1] | MIC (Staphylococcus aureus [2]) | MIC (Staphylococcus aureus [3]) | MIC (Escherichia coli [4]) | MIC (Escherichia coli [5]) | MIC (Pseudomonas aeruginosa [6]) | MIC50 (Staphylococcus aureus [2]) | MIC50 (Pseudomonas aeruginosa [6]) | Ratio (Staphylococcus aureus [7]) | Ratio (Pseudomonas aeruginosa [8])
1 | COc1ccc(NC(=O)CNC(=O)Cc2ccc(O)cc2)cc1 | 319 µM | > 160 µM | > 160 µM | > 160 µM | > 160 µM | > 160 µM | – | – | – | –
2 | O=C(Cc1ccc(O)cc1)NCC(=O)Nc1ccc([N+](=O)[O-])cc1 | 10.2 µM | 28.6 µM (≈ 9.42 µg/mL) | 34.1 µM (≈ 11.2 µg/mL) | 86.9 µM (≈ 28.6 µg/mL) | 144 µM (≈ 47.4 µg/mL) | 134 µM (≈ 44.1 µg/mL) | – | – | – | –
3 | COc1ccc(NC(=O)CNC(=O)Cc2cccc(O)c2)cc1 | 279 µM | > 160 µM | > 160 µM | > 160 µM | > 160 µM | > 160 µM | – | – | – | –
4 | O=C(Cc1cccc(O)c1)NCC(=O)Nc1ccc([N+](=O)[O-])cc1 | 6.41 µM | 15.2 µM (≈ 5.01 µg/mL) | 18.4 µM (≈ 6.06 µg/mL) | 47.1 µM (≈ 15.5 µg/mL) | 89.4 µM (≈ 29.4 µg/mL) | 72 µM (≈ 23.7 µg/mL) | – | – | – | –
5 | COc1ccc(NC(=O)CNC(=O)Cc2ccccc2O)cc1 | 478 µM | > 160 µM | > 160 µM | > 160 µM | > 160 µM | > 160 µM | – | – | – | –
6 | Cc1ccc(NC(=O)CNC(=O)Cc2cccc(Cl)c2)cc1 | 21.4 µM | 64.9 µM (≈ 20.6 µg/mL) | 91.1 µM (≈ 28.9 µg/mL) | 155 µM (≈ 49.2 µg/mL) | > 160 µM | > 160 µM | – | – | – | –
7 | Cc1ccc(CC(=O)NCC(=O)Nc2ccc([N+](=O)[O-])cc2)cc1 | 44.6 µM | 80.7 µM (≈ 26.4 µg/mL) | 132 µM (≈ 43.2 µg/mL) | > 160 µM | > 160 µM | > 160 µM | – | – | – | –
8 | O=C(Cc1ccccc1)NCC(=O)Nc1cc(F)cc(F)c1 | 13.1 µM | 40.5 µM (≈ 12.3 µg/mL) | 47.7 µM (≈ 14.5 µg/mL) | 120 µM (≈ 36.5 µg/mL) | > 160 µM | 148 µM (≈ 45.1 µg/mL) | – | – | – | –
9 | O=C(Cc1ccc(Cl)cc1)NCC(=O)Nc1cc(Cl)cc(Cl)c1 | 254 µM | > 160 µM | > 160 µM | > 160 µM | > 160 µM | > 160 µM | – | – | – | –
10 | COc1ccc(NC(=O)CNC(=O)Cc2ccc(Cl)cc2)cc1 | 70.1 µM | > 160 µM | > 160 µM | > 160 µM | > 160 µM | > 160 µM | – | – | – | –
11 | COc1ccc(NC(=O)CNC(=O)Cc2cccc(Cl)c2)cc1 | 66.5 µM | 148 µM (≈ 49.3 µg/mL) | 148 µM (≈ 49.3 µg/mL) | > 160 µM | > 160 µM | > 160 µM | – | – | – | –
12 | O=C(Cc1cccc(Cl)c1)NCC(=O)Nc1ccc([N+](=O)[O-])cc1 | 0.7 µM | 1.84 µM (≈ 0.64 µg/mL) | 2.36 µM (≈ 0.821 µg/mL) | 6.8 µM (≈ 2.36 µg/mL) | 9.5 µM (≈ 3.3 µg/mL) | 10.1 µM (≈ 3.51 µg/mL) | 0.52 µM (≈ 0.181 µg/mL) | 3.37 µM (≈ 1.17 µg/mL) | 3 | 3.9
13 | COc1ccc(NC(=O)CNC(=O)Cc2ccccc2Cl)cc1 | 189 µM | > 160 µM | > 160 µM | > 160 µM | > 160 µM | > 160 µM | – | – | – | –
14 | O=C(Cc1ccccc1Cl)NCC(=O)Nc1ccc([N+](=O)[O-])cc1 | 2.52 µM | 6.51 µM (≈ 2.26 µg/mL) | 8.41 µM (≈ 2.92 µg/mL) | 13.5 µM (≈ 4.69 µg/mL) | 19.7 µM (≈ 6.85 µg/mL) | 34 µM (≈ 11.8 µg/mL) | – | – | – | –
15 | COc1ccc(NC(=O)CNC(=O)Cc2ccc(F)cc2)cc1 | 112 µM | > 160 µM | > 160 µM | > 160 µM | > 160 µM | > 160 µM | – | – | – | –
16 | O=C(Cc1ccc(F)cc1)NCC(=O)Nc1ccc([N+](=O)[O-])cc1 | 5.25 µM | 14.1 µM (≈ 4.67 µg/mL) | 17 µM (≈ 5.63 µg/mL) | 42.3 µM (≈ 14 µg/mL) | 75.8 µM (≈ 25.1 µg/mL) | 65.6 µM (≈ 21.7 µg/mL) | – | – | – | –
17 | COc1ccc(NC(=O)CNC(=O)Cc2cccc(F)c2)cc1 | 92.7 µM | > 160 µM | > 160 µM | > 160 µM | > 160 µM | > 160 µM | – | – | – | –
18 | O=C(Cc1cccc(F)c1)NCC(=O)Nc1ccc([N+](=O)[O-])cc1 | 1.14 µM | 3.14 µM (≈ 1.04 µg/mL) | 4.11 µM (≈ 1.36 µg/mL) | 12.3 µM (≈ 4.08 µg/mL) | 19.6 µM (≈ 6.49 µg/mL) | 18.2 µM (≈ 6.03 µg/mL) | – | – | – | –
19 | COc1ccc(NC(=O)CNC(=O)Cc2ccc(OC)c(OC)c2)cc1 | 556 µM | > 160 µM | > 160 µM | > 160 µM | > 160 µM | > 160 µM | – | – | – | –
20 | COc1ccc(CC(=O)NCC(=O)Nc2ccc([N+](=O)[O-])cc2)cc1OC | 88.5 µM | > 160 µM | > 160 µM | > 160 µM | > 160 µM | > 160 µM | – | – | – | –
21 | NC[C@H]1O[C@H](O[C@H]2[C@H](O)[C@@H](O[C@H]3O[C@H](CO)[C@@H](O)[C@H](N)[C@H]3O)[C@H](N)C[C@@H]2N)[C@H](O)[C@@H](O)[C@@H]1O [KANAMYCIN] | – | – | – | 1.26 µM (≈ 0.61 µg/mL) | 4.35 µM (≈ 2.11 µg/mL) | 7.16 µM (≈ 3.47 µg/mL) | – | – | – | –
22 | CC1(C)S[C@@H]2[C@H](NC(=O)Cc3ccccc3)C(=O)N2[C@H]1C(=O)O [PENICILLIN G] | – | 7.13 µM (≈ 2.38 µg/mL) | 9.28 µM (≈ 3.1 µg/mL) | – | – | – | – | – | – | –

Continued, in another order:

Row | IC50 [1] | MIC (Staphylococcus aureus [2]) | MIC (Staphylococcus aureus [3]) | MIC (Escherichia coli [4]) | MIC (Escherichia coli [5]) | MIC (Pseudomonas aeruginosa [6]) | MIC50 (Staphylococcus aureus [2]) | MIC50 (Pseudomonas aeruginosa [6]) | Structure (SMILES) | Ratio (Staphylococcus aureus [7]) | Ratio (Pseudomonas aeruginosa [8])
23 | 82 µM | > 160 µM | > 160 µM | > 160 µM | > 160 µM | > 160 µM | – | – | COc1ccc(NC(=O)CNC(=O)Cc2ccccc2)cc1 | – | –
24 | 144 µM | > 160 µM | > 160 µM | > 160 µM | > 160 µM | > 160 µM | – | – | O=C(Cc1ccccc1)NCC(=O)Nc1cccc(Cl)c1 | – | –
25 | 162 µM | > 160 µM | > 160 µM | > 160 µM | > 160 µM | > 160 µM | – | – | COc1ccc(NC(=O)CNC(=O)Cc2ccccc2)cc1OC | – | –
26 | 50.6 µM | 113 µM (≈ 39.3 µg/mL) | > 160 µM | > 160 µM | > 160 µM | > 160 µM | – | – | O=C(Cc1ccccc1)NCC(=O)Nc1ccc(Br)cc1 | – | –
27 | 47.8 µM | 103 µM (≈ 32.3 µg/mL) | 156 µM (≈ 48.9 µg/mL) | > 160 µM | > 160 µM | > 160 µM | – | – | O=C(Cc1ccccc1)NCC(=O)Nc1cccc([N+](=O)[O-])c1 | – | –
28 | 0.87 µM | 2.81 µM (≈ 0.88 µg/mL) | 3.67 µM (≈ 1.15 µg/mL) | 11.2 µM (≈ 3.51 µg/mL) | 15.8 µM (≈ 4.95 µg/mL) | 18.2 µM (≈ 5.7 µg/mL) | – | – | O=C(Cc1ccccc1)NCC(=O)Nc1ccc([N+](=O)[O-])cc1 | – | –
29 | 16.6 µM | 49.7 µM (≈ 15 µg/mL) | 69.2 µM (≈ 21 µg/mL) | 123 µM (≈ 37.3 µg/mL) | 159 µM (≈ 48.1 µg/mL) | > 160 µM | – | – | O=C(Cc1ccccc1)NCC(=O)Nc1ccc(Cl)cc1 | – | –
30 | 133 µM | > 160 µM | > 160 µM | > 160 µM | > 160 µM | > 160 µM | – | – | O=C(Cc1ccccc1)NCC(=O)Nc1cc(Cl)cc(Cl)c1 | – | –
31 | 19.3 µM | 52.7 µM (≈ 14.1 µg/mL) | 73.5 µM (≈ 19.7 µg/mL) | 134 µM (≈ 35.9 µg/mL) | > 160 µM | > 160 µM | – | – | O=C(Cc1ccccc1)NCC(=O)Nc1ccccc1 | – | –
32 | 205 µM | > 160 µM | > 160 µM | > 160 µM | > 160 µM | > 160 µM | – | – | O=C(Cc1ccccc1)NCC(=O)Nc1ccccc1Cl | – | –
33 | 8.36 µM | 20.9 µM (≈ 7.98 µg/mL) | 24.9 µM (≈ 9.5 µg/mL) | 62.4 µM (≈ 23.8 µg/mL) | 83.4 µM (≈ 31.8 µg/mL) | 96.1 µM (≈ 36.7 µg/mL) | – | – | O=C(Cc1cccc(Cl)c1)NCC(=O)Nc1ccc(Br)cc1 | – | –
34 | 77.8 µM | 69.7 µM (≈ 26.6 µg/mL) | 103 µM (≈ 39.5 µg/mL) | > 160 µM | > 160 µM | > 160 µM | – | – | O=C(Cc1ccccc1Cl)NCC(=O)Nc1ccc(Br)cc1 | – | –
35 | 58.4 µM | 97.2 µM (≈ 41.4 µg/mL) | > 160 µM | > 160 µM | > 160 µM | > 160 µM | – | – | O=C(Cc1cccc(Br)c1)NCC(=O)Nc1ccc(Br)cc1 | – | –

Source: ChEMBL document CHEMBL3621174, “Synthesis and evaluation of new tyrosyl-tRNA synthetase inhibitors as antibacterial agents based on a N2-(arylacetyl)glycinanilide scaffold” (Eur J Med Chem, 2015)
